Assay: xn = mol fraction of the nth substance listed
Conditions: Liquid

CO [methanol] + O
excess molar volume [m3/mol]
Conditions | 298.15 K | 323.15 K | 348.15 K | 373.15 K | 398.15 K | 423.15 K | 448.15 K | 473.15 K | 498.15 K | 523.15 K
100 kPa, x1 = 0.25 | -7.42e-07 | -7.75e-07 | – | – | – | – | – | – | – | –
100 kPa, x1 = 0.5 | -1.014e-06 | -1.049e-06 | – | – | – | – | – | – | – | –
100 kPa, x1 = 0.75 | -7.05e-07 | -7.38e-07 | – | – | – | – | – | – | – | –
5000 kPa, x1 = 0.25 | -7.13e-07 | -7.41e-07 | -7.75e-07 | -8.26e-07 | -8.9e-07 | -9.81e-07 | -1.223e-06 | -1.902e-06 | – | –
5000 kPa, x1 = 0.5 | -9.63e-07 | -9.91e-07 | -1.022e-06 | -1.082e-06 | -1.146e-06 | -1.247e-06 | -1.583e-06 | -2.545e-06 | – | –
5000 kPa, x1 = 0.75 | -6.74e-07 | -7.02e-07 | -7.58e-07 | -8.14e-07 | -8.68e-07 | -9.59e-07 | -1.163e-06 | -1.736e-06 | – | –
10000 kPa, x1 = 0.25 | -6.85e-07 | -7.07e-07 | -7.33e-07 | -7.67e-07 | -8.12e-07 | -8.74e-07 | -9.78e-07 | -1.285e-06 | -2.081e-06 | –
10000 kPa, x1 = 0.5 | -9.15e-07 | -9.36e-07 | -9.61e-07 | -9.85e-07 | -1.017e-06 | -1.072e-06 | -1.246e-06 | -1.616e-06 | -2.481e-06 | –
10000 kPa, x1 = 0.75 | -6.44e-07 | -6.7e-07 | -7.12e-07 | -7.46e-07 | -7.89e-07 | -8.43e-07 | -9.16e-07 | -1.12e-06 | -1.949e-06 | –
20000 kPa, x1 = 0.25 | -6.27e-07 | -6.4e-07 | -6.5e-07 | -6.6e-07 | -6.68e-07 | -6.78e-07 | -7.11e-07 | -8e-07 | -8.98e-07 | -1.217e-06
20000 kPa, x1 = 0.5 | -8.31e-07 | -8.38e-07 | -8.45e-07 | -8.51e-07 | -8.57e-07 | -8.64e-07 | -8.73e-07 | -8.91e-07 | -9.52e-07 | -1.421e-06
20000 kPa, x1 = 0.75 | -5.93e-07 | -6.05e-07 | -6.23e-07 | -6.44e-07 | -6.56e-07 | -6.65e-07 | -6.88e-07 | -7.38e-07 | -8.16e-07 | -1.204e-06
30000 kPa, x1 = 0.25 | -5.75e-07 | -5.74e-07 | -5.73e-07 | -5.71e-07 | -5.68e-07 | -5.65e-07 | -5.62e-07 | -5.58e-07 | -5.54e-07 | -5.47e-07
30000 kPa, x1 = 0.5 | -7.62e-07 | -7.51e-07 | -7.38e-07 | -7.26e-07 | -7.09e-07 | -6.92e-07 | -6.64e-07 | -6.29e-07 | -5.87e-07 | -5.46e-07
30000 kPa, x1 = 0.75 | -5.53e-07 | -5.49e-07 | -5.37e-07 | -5.28e-07 | -5.19e-07 | -5.12e-07 | -4.93e-07 | -4.65e-07 | -4.28e-07 | -3.91e-07
40000 kPa, x1 = 0.25 | -5.29e-07 | -5.2e-07 | -5.12e-07 | -5.07e-07 | -4.94e-07 | -4.81e-07 | -4.64e-07 | -4.41e-07 | -4.12e-07 | -3.76e-07
40000 kPa, x1 = 0.5 | -7.02e-07 | -6.85e-07 | -6.67e-07 | -6.47e-07 | -6.14e-07 | -5.71e-07 | -5.13e-07 | -4.66e-07 | -4.01e-07 | -3.36e-07
40000 kPa, x1 = 0.75 | -5.14e-07 | -5.02e-07 | -4.81e-07 | -4.58e-07 | -4.35e-07 | -4.2e-07 | -3.86e-07 | -3.3e-07 | -2.7e-07 | -2.01e-07
50000 kPa, x1 = 0.25 | -4.85e-07 | -4.75e-07 | -4.64e-07 | -4.52e-07 | -4.33e-07 | -4.13e-07 | -3.89e-07 | -3.59e-07 | -3.26e-07 | -2.77e-07
50000 kPa, x1 = 0.5 | -6.49e-07 | -6.32e-07 | -6.06e-07 | -5.81e-07 | -5.37e-07 | -4.75e-07 | -4.04e-07 | -3.42e-07 | -2.68e-07 | -1.97e-07
50000 kPa, x1 = 0.75 | -4.65e-07 | -4.55e-07 | -4.4e-07 | -4.14e-07 | -3.8e-07 | -3.49e-07 | -3e-07 | -2.37e-07 | -1.6e-07 | -8.4e-08
60000 kPa, x1 = 0.25 | -4.61e-07 | -4.39e-07 | -4.23e-07 | -4.05e-07 | -3.83e-07 | -3.56e-07 | -3.27e-07 | -2.9e-07 | -2.45e-07 | -1.86e-07
60000 kPa, x1 = 0.5 | -6.02e-07 | -5.84e-07 | -5.58e-07 | -5.21e-07 | -4.75e-07 | -4.01e-07 | -3.18e-07 | -2.41e-07 | -1.61e-07 | -8.4e-08
60000 kPa, x1 = 0.75 | – | -4.28e-07 | -4.06e-07 | -3.72e-07 | -3.33e-07 | -2.84e-07 | -2.23e-07 | -1.58e-07 | -8.4e-08 | -5e-09
